Test results: article PMC3625111 (Biochemical Pharmacology, 2013)
Entries after “also recorded” stand apart in the source; their conditions may differ. Where two headings read alike, the source gives them in different places.

Tests used:
[1] = cited from earlier work; for brain uptake: ref not given
SH-SY5Y cells = assay: Hsp20 phosphorylation assay (western blot, phospho-serine 16); type: cell-based; details: for Hsp20 phosphorylation (serine 16): rolipram 10 μM, moexipril, 7, 8 at 50 μM, 0.5, 1, 2 h
Protocol: Compounds were diluted in media and added to cells for 0.5, 1 and 2 h prior to harvesting using 3T3 lysis buffer (1% Triton X-100, 50 mM Hepes, pH 7.2, 10 mM EDTA and 100 mM NaH2PO4) supplemented with protease inhibitor Mini-Complete (Roche) and phosphatase inhibitor PHOS-stop (Roche, UK). Hsp20 expression was analysed using standard SDS-PAGE and Western Blotting techniques using the phospho-Hsp20 antibody (ab58522 Abcam, UK) and alpha-tubulin-HRP antibody (ab40742 Abcam, UK) as the loading control. Western blotting for PDE4s was undertaken using antibodies previously described by us.

[2] = test system: SH-SY5Y cells stably expressing Epac1-camps; assay: FRET imaging of cAMP with Epac1-camps biosensor; type: cell-based; details: added after forskolin 5 μM
Protocol: HEK293 cells were maintained in DMEM containing 10% (v/v) FBS, 2 mM L-glutamine and 1% penicillin/streptomycin. SH-SY5Y cells were maintained in DMEM:F12 (1:1) containing 10% (v/v) FBS, 2 mM L-glutamine and 1% penicillin/streptomycin. For FRET analysis SH-SY5Y cells stably expressing Epac1-camps under G418 selection (500 μg/ml) were seeded onto 22 mm round glass coverslips and maintained in a 6 well plate 24 h prior to use.
FRET imaging experiments were performed on SH-SY5Y-Epac1-camps stables. Cells were maintained at room temperature in DPBS (Invitrogen, UK), with added CaCl2 and MgCl2, and imaged on an inverted microscope (Olympus IX71) with a PlanApoN, 60X, NA 1.42 oil, 0.17/FN 26.5, objective (Japan). The microscope was equipped with a CCD camera (cool SNAP HQ monochrome, Photometrics), and a beam-splitter optical device (Dual-channel simultaneous-imaging system, DV^2 mag biosystem (ET-04-EM)). Imaging acquisition and analysis software used was Meta imaging series 7.1, Metafluor, and processed using ImageJ (http://rsb.info.nih.gov/ij/). FRET changes were measured as changes in the background-subtracted 480/545-nm fluorescence emission intensity on excitation at 430 nm and expressed as either R/R0, where R is the ratio at time t and R0 is the ratio at time = 0 s, or ΔR/R0, where ΔR = R − R0. Values are expressed as the mean ± SEM.

PDE4B2 = target: T1, PDE4B2 (Homo sapiens, UniProt Q07343); assay: PDE activity two-step radioassay, PDE4B2 lysate; type: biochemical; details: for IC50: PDE4B2 from transfected HEK293 lysate, cAMP hydrolysis, n = 3
T1 construct: expressed in transfected cells; host or cells: HEK293
Protocol: (§1) Expression plasmids encoding human PDE4 were as previously described by us [[27,28]]. The plasmids were purified from Escherichia coli using the Maxi-prep system (Qiagen, UK). For transient transfections, HEK293 cells were seeded at a 1:3 ratio into culture flasks 24 h before transfection so that cells were ~60% confluent by the time of transfection. Transfections were carried out using PolyFect® transfection reagent (Qiagen, UK) in accordance with manufacturer's instructions.
(§2) Samples were then frozen on solid CO2, thawed and then manually homogenised, followed by passage through a 26-gauge needle several times to ensure complete cell lysis. Cells were centrifuged at 13,000 rpm for 10 min to remove any unbroken cells, and the resulting supernatant was frozen in solid CO2 and stored at −80 °C until required. For experimentation, the protein concentration of whole-cell lysate from transfected and mock-transfected (vector only) cells was equalised (typically to 1 μg/μl). Protein concentration was determined through Bradford Assay using bovine serum albumin as standard.
(§3) PDE activity was determined using a two-step radioassay procedure as described previously. Activities for each PDE subtype were related to a non-drug treated sample (100% control) over an increasing dose of the indicated compounds. IC50 values were calculated using.

[3] = parameters: method as in PMID 3508548, PMID 2999531; details: use in hypertension; cited from earlier work
PDE5 = target: T2, PDE5 (Homo sapiens, UniProt O76074); assay: PDE activity two-step radioassay, PDE5 lysate; type: biochemical; details: dose response, Fig. 3C
T2 construct: expressed in transfected cells; host or cells: HEK293
Protocol: as §2, with “Cells (~90–100% confluent) were transfected for 48 h with cDNA encoding PDE4B2, PDE4A5, PDE4D5, PDE8A and PDE5, washed with PBS and harvested by using a cell scraper in KHEM buffer (50 mM KCl, 50 mM HEPES; pH 7.2, 10 mM EGTA, 1.92 mM MgCl2, 1 mM dithiothreitol (DTT)) supplemented with protease inhibitor Mini-Complete (Roche, UK). Samples” for “Samples”
as §3, with “using. In all cases, the transfected PDE accounted for over 97% of the total PDE activity when compared with the untransfected control lysates.” for “using.”

PDE8A = target: T3, PDE8A (Homo sapiens, UniProt O60658); assay: PDE activity two-step radioassay, PDE8A lysate; type: biochemical; details: dose response, Fig. 3C
T3 construct: expressed in transfected cells; host or cells: HEK293
Protocol: as §2, with “Cells (~90–100% confluent) were transfected for 48 h with cDNA encoding PDE4B2, PDE4A5, PDE4D5, PDE8A and PDE5, washed with PBS and harvested by using a cell scraper in KHEM buffer (50 mM KCl, 50 mM HEPES; pH 7.2, 10 mM EGTA, 1.92 mM MgCl2, 1 mM dithiothreitol (DTT)) supplemented with protease inhibitor Mini-Complete (Roche, UK). Samples” for “Samples”
as §3, with “using. In all cases, the transfected PDE accounted for over 97% of the total PDE activity when compared with the untransfected control lysates.” for “using.”

PDE4D5 = target: T4, PDE4D5 (Homo sapiens, UniProt Q08499); assay: PDE activity two-step radioassay, PDE4D5 lysate; type: biochemical
T4 construct: expressed in transfected cells; host or cells: HEK293
Protocol: as §1
Cells (~90–100% confluent) were transfected for 48 h with cDNA encoding PDE4B2, PDE4A5, PDE4D5, PDE8A and PDE5, washed with PBS and harvested by using a cell scraper in KHEM buffer (50 mM KCl, 50 mM HEPES; pH 7.2, 10 mM EGTA, 1.92 mM MgCl2, 1 mM dithiothreitol (DTT)) supplemented with protease inhibitor Mini-Complete (Roche, UK). Samples were then frozen on solid CO2, thawed and then manually homogenised, followed by passage through a 26-gauge needle several times to ensure complete cell lysis. Cells were centrifuged at 13,000 rpm for 10 min to remove any unbroken cells, and the resulting supernatant was frozen in solid CO2 and stored at −80 °C until required. […] Protein concentration was determined through Bradford Assay using bovine serum albumin as standard.
PDE activity was determined using a two-step radioassay procedure as described previously. […] IC50 values were calculated using. […]

[4] = Colloidal aggregation by dynamic light scattering; type: physicochemical
beta-lactamase = beta-lactamase (Escherichia coli, UniProt P00811); assay: beta-lactamase inhibition (aggregation counter-screen); type: biochemical; details: at 10 or 100 μM
[5] = parameters: method as in printed; details: oral dose of 15 mg, ref not given, cited from earlier work
porcine serum ACE = test system: porcine serum ACE; parameters: method as in PMID 3508548, PMID 2999531; details: vs porcine serum ACE; cited from earlier work

T1 sequence (Q07343 1-564 isoform Q07343-2): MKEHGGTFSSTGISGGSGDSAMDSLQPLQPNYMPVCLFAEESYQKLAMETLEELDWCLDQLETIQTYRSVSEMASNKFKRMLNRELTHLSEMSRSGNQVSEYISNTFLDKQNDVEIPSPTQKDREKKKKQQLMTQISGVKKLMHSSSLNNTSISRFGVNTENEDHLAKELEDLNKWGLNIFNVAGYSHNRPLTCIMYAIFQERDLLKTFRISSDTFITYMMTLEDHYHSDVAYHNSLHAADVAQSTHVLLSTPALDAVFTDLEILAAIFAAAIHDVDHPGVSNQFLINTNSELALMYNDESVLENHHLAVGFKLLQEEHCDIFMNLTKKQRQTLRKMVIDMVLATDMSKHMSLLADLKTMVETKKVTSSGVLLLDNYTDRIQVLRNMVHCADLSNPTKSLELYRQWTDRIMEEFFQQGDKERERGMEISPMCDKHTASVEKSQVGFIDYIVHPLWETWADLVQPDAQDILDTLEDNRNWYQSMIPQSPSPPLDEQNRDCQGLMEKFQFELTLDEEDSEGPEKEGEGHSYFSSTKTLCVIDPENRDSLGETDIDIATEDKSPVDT
T4 sequence (Q08499 1-745 isoform Q08499-6): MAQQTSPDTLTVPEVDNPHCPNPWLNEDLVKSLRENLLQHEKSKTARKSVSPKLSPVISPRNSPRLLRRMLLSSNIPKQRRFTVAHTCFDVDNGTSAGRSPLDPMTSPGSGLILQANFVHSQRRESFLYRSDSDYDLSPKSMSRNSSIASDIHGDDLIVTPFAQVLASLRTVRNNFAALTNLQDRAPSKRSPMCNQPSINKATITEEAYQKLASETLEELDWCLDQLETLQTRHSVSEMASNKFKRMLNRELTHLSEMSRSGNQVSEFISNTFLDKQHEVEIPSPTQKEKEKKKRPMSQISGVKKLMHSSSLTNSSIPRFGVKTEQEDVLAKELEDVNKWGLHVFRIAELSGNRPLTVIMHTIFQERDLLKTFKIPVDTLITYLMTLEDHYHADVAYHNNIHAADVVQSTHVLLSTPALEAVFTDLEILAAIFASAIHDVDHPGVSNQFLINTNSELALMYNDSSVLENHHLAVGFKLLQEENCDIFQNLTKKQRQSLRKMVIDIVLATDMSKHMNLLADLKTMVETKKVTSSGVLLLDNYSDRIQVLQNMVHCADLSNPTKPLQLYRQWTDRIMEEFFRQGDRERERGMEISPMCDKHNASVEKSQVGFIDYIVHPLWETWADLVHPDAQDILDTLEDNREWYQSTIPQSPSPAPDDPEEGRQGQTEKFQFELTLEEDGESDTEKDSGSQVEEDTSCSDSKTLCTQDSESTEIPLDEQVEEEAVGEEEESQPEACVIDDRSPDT
Sequence of beta-lactamase (P00811 20-377): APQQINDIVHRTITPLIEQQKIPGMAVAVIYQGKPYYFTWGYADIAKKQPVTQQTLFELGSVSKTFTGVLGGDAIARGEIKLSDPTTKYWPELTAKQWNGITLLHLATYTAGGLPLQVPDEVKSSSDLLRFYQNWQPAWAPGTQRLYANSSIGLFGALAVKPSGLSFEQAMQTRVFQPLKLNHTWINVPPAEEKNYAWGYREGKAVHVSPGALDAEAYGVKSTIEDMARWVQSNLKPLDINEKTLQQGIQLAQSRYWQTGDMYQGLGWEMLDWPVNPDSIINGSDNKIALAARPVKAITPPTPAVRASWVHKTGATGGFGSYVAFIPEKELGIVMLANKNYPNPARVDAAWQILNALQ
T3 sequence (O60658 whole entry, species assumed): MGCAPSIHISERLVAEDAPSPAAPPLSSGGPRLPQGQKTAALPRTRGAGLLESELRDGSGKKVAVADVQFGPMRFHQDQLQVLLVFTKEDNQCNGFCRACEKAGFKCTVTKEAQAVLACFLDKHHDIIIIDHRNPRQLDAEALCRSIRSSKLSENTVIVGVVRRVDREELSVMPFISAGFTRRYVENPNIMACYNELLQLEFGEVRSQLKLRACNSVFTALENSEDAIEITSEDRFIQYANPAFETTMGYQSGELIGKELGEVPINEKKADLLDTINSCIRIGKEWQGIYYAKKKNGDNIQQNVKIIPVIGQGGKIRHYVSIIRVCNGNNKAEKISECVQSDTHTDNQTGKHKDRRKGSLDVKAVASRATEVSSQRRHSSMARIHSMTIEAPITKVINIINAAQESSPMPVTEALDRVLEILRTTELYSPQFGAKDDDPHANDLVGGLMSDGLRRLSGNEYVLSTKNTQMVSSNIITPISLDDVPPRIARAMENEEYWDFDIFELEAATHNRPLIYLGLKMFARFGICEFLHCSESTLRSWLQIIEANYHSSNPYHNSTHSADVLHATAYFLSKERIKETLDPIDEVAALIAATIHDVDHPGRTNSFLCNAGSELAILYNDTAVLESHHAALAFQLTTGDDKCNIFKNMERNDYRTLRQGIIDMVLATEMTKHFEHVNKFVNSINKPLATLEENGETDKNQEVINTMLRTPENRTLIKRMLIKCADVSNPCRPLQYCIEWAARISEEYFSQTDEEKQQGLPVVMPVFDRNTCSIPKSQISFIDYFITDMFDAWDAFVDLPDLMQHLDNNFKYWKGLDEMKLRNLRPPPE

Question: With COc1cc2c(cc1OC)CN(C(=O)[C@H](C)N[C@@H](CCc1ccccc1)C(=O)O)[C@H](C(=O)O)C2 [moexiprilat] as the molecule, how does the brain uptake [1] read?
Answer: The brain uptake was “poor uptake by the brain”.

Question: With CCCCCCOC(=O)[C@]1(O)C[C@@H]2O[C@@]1(C)n1c3ccccc3c3c4c(c5c6ccccc6n2c5c31)C(=O)NC4 [KT5720] as the molecule, how does the “effect on Hsp20 phosphorylation induced by moexipril and forskolin” value (SH-SY5Y cells; KT5720 4 μM 20 min before forskolin 10 μM with moexipril 50 μM, 5 min) read?
Answer: The value was “attenuate”.

Question: With COc1cc2c(cc1OC)CN(C(=O)CCc1c[nH]c3ccccc13)[C@H](C(=O)O)C2 (racemic) [Compound 8] as the molecule, how does the “cellular cAMP increase (FRET ratio change) over forskolin alone” value [2] read?
Answer: Its value is “significantly enhanced”.

Question: And the “Hsp20 phosphorylation (serine 16)” value (SH-SY5Y cells)?
Answer: The value was “induced Hsp20 phosphorylation”.

Question: And the “fold better IC50 than moexipril” value (PDE4B2; PDE4B2)?
Answer: Its value is 7 fold.

Question: And the IC50 (PDE4B2)?
Answer: The IC50 was 6.9 µM.

Question: Which brain uptake [1] does the source give for CCOC(=O)[C@H](CCc1ccccc1)N[C@@H](C)C(=O)N1Cc2cc(OC)c(OC)cc2C[C@H]1C(=O)O [moexipril] here?
Answer: The brain uptake was “poor uptake by the brain”.

Question: What about the emetogenic activity [3] of the same molecule?
Answer: The emetogenic activity was “apparently lacking emetogenic activity”.

Question: What about the “activity against PDE5” value (PDE5) of the same molecule?
Answer: Its value is “no activity”.

Question: And the “cellular cAMP increase (FRET ratio change) over forskolin alone” value [2]?
Answer: The value was “markedly potentiated; also recorded: significantly enhance”.

Question: What about the “activity against PDE8A” value (PDE8A) of the same molecule?
Answer: The value was “no activity”.

Question: What about the IC50 (PDE4D5; PDE4D5, n = 3) of the same molecule?
Answer: Its IC50 is 230 µM.

Question: What about the “fold lower sensitivity to inhibition than PDE4B2” value (PDE4D5; PDE4D5 vs PDE4B2) of the same molecule?
Answer: The value was 6 fold.

Question: And the “Hsp20 phosphorylation (serine 16)” value (SH-SY5Y cells)?
Answer: The value was “significantly increased”.

Question: And the colloidal aggregation [4]?
Answer: Its colloidal aggregation is “no particles were observed”.

Question: What about the inhibition of beta-lactamase (beta-lactamase) of the same molecule?
Answer: The inhibition of beta-lactamase was “did not inhibit”.

Question: And the Cmax ([5]; conversion of 25 μg/L, read-out: Cmax)?
Answer: The Cmax was about 50 nM.

Question: What about the Cmax ([5]; one PK assessment) of the same molecule?
Answer: Its Cmax is 25 ng/mL.

Question: What about the IC50 (PDE4B2) of the same molecule?
Answer: Its IC50 is 38 µM.

Question: And the IC50 (porcine serum ACE)?
Answer: Its IC50 is 0.04 µM.

Question: For COc1ccc(C2CNC(=O)C2)cc1OC1CCCC1 (stereo not shown) [rolipram], which “Hsp20 phosphorylation (serine 16)” value (SH-SY5Y cells) is on record?
Answer: Its value is “significantly increased”.

Question: With COc1ccc([C@]2(C#N)CC[C@@H](C(=O)O)CC2)cc1OC1CCCC1 [cilomilast] as the molecule, how does the brain penetration [1] read?
Answer: Its brain penetration is “limited”.

Question: With COc1cc2c(cc1OC)CN(C(=O)Cn1cnc3ccccc3c1=O)[C@H](C(=O)O)C2 (racemic) [Compound 7] as the molecule, how does the “cellular cAMP increase (FRET ratio change) over forskolin alone” value [2] read?
Answer: The value was “significantly enhanced”.

Question: What about the “Hsp20 phosphorylation (serine 16)” value (SH-SY5Y cells) of the same molecule?
Answer: The value was “induced Hsp20 phosphorylation”.

Question: What about the IC50 (PDE4B2) of the same molecule?
Answer: Its IC50 is 89 µM.
